Measured values reported in ChEMBL document CHEMBL3112448, “Selective COX-1 inhibition as a target of theranostic novel diarylisoxazoles” (Eur J Med Chem, 2014).
Activity calls are given as the source filed them. The rule behind the calls is not given here.

Each compound was assayed against Prostaglandin G/H synthase 1 (Homo sapiens, UniProt P23219) (assay: Inhibition of COX1 in human OVCAR3 cells using [14C]arachidonic acid as substrate preincubated for 30 mins before substrate addition by radioactivity scanning technique). Details: not given.
Format: cell-based, OVCAR-3

Sequence of Prostaglandin G/H synthase 1 (P23219 whole entry): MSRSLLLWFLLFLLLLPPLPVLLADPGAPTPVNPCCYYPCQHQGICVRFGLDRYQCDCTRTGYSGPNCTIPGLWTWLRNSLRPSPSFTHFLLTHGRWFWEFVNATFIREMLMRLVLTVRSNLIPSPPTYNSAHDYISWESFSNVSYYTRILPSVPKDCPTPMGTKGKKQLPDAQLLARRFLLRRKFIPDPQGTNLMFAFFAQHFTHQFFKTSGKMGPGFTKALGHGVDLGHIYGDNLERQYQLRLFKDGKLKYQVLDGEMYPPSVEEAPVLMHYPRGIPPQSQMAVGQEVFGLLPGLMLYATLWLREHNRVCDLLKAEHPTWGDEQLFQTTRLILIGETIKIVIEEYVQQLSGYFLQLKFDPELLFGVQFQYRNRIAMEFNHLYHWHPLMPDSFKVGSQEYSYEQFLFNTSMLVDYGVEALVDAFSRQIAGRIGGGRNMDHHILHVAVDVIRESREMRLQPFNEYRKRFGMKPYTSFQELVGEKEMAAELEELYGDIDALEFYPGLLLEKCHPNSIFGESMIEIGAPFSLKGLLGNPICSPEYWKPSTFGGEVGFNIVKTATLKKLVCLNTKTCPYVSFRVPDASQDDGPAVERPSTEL

Row | Compound | IC50 [nM]
1 | Nc1onc(-c2ccc(Cl)o2)c1-c1ccccc1 | 580

The compounds below were run against T1, Prostaglandin G/H synthase 1 (Ovis aries) (UniProt P05979). Details: at 50 µM.
T1 sequence (whole entry): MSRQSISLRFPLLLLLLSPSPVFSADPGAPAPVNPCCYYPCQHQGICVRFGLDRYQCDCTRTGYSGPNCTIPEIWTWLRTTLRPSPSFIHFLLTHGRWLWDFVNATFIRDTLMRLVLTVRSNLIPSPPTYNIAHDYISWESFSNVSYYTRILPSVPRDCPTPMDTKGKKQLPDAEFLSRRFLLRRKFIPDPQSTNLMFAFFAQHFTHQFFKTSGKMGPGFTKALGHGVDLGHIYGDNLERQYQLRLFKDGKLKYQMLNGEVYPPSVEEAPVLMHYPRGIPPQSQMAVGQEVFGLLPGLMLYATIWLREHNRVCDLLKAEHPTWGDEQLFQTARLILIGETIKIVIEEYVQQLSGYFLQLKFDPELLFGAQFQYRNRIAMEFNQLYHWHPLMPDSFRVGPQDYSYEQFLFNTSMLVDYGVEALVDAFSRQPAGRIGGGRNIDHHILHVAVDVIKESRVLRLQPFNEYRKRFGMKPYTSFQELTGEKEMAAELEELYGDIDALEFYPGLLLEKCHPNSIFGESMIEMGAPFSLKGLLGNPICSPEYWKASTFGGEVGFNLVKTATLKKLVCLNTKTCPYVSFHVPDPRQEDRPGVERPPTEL
Description: Inhibition of ovine COX1 at 50 uM by peroxidase activity-based colorimetric assay

Row | Compound | inhibition
2 | CCc1onc(-c2ccc(Cl)o2)c1-c1ccccc1 | 55%
3 | Cc1onc(-c2ccc(Cl)o2)c1-c1ccc(N)cc1 | 78%
4 | COc1ccccc1-c1noc(C(F)(F)F)c1-c1ccccc1 | 39%
5 | CN(C)c1onc(-c2ccc(Cl)o2)c1-c1ccccc1 | inactive
6 | Nc1onc(-c2ccc(Cl)o2)c1-c1ccccc1 | 94%
7 | CCCc1onc(-c2ccc(Cl)o2)c1-c1ccccc1 | 17%
8 | N#CCc1onc(-c2ccc(Cl)o2)c1-c1ccccc1 | 12%
9 | Cc1onc(-c2ccc(Cl)o2)c1-c1ccccc1 | 69%
10 | COC(=O)Cc1onc(-c2ccc(Cl)o2)c1-c1ccccc1 | inactive
11 | CC(=O)N(C(C)=O)c1onc(-c2ccc(Cl)o2)c1-c1ccccc1 | 25%
12 | Cc1onc(-c2ccc(Cl)o2)c1-c1ccc([N+](=O)[O-])cc1 | inactive
13 | Clc1ccc(-c2noc(CBr)c2-c2ccccc2)o1 | 35%
14 | COc1ccccc1-c1noc(C)c1-c1ccccc1 | 61%
15 | O=C(O)Cc1onc(-c2ccc(Cl)o2)c1-c1ccccc1 | 32%
